Earlier results in patent publication US20030199492A1, “Combination therapy” (priority 1997, published 2003).

How the values were obtained:
[1] = tested on: calcium channel
[2] = tested on: smooth muscle cell migration

CCOC(=O)C1=C(COCCN)NC(C)=C(C(=O)OC)C1c1ccccc1Cl (single isomer, unassigned) [R(+) isomer, amlodipine]
calcium channel blocking activity [1]: little or no calcium channel blocking activity | inhibition of smooth muscle cell migration [2]: potent inhibitor of smooth muscle cell migration
